# Data: the supplement of paper PMC5662764
# ± gives the standard deviation of the averaged measurements.
# Legend:
# Assay in all cases: normalised growth rate inhibition (GR value) relative to DMSO control (GR (1 = untreated growth, 0 = cytostasis, <0 = cytotoxic)); higher = less growth inhibition
# Settings in all cases: 72 h
# [1] = test system: MCF10A
# Protocol: (§1)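 Breast cancer cell lines (BT-20, Hs 578T, MCF 10A, MCF7, MDA-MB-231, SK-BR-3) were plated in 384-well plates and treated 24 h later with drugs at six concentrations (0.04-10 µM). Viable cells were counted by Hoechst/dead-cell-stain imaging at 0 and 72 h. Counts were normalised to DMSO controls on the same plate to give the relative cell count and the growth-rate inhibition (GR) value; technical plate triplicates were averaged for each biological replicate.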
# [2] = test system: SKBR3
# Protocol: as §1
# [3] = test system: BT20
# Protocol: as §1
# [4] = test system: MCF7
# Protocol: as §1
# [5] = test system: HS578T
# Protocol: as §1
# [6] = test system: MDAMB231
# Protocol: as §1
Structure (SMILES),normalised growth rate inhibition ([1]; 0.04 µM),normalised growth rate inhibition ([1]; 0.12 µM),normalised growth rate inhibition ([1]; 0.37 µM),normalised growth rate inhibition ([1]; 1.11 µM),normalised growth rate inhibition ([1]; 3.33 µM),normalised growth rate inhibition ([1]; 10 µM),normalised growth rate inhibition ([2]; 0.04 µM),normalised growth rate inhibition ([2]; 0.12 µM),normalised growth rate inhibition ([2]; 0.37 µM),normalised growth rate inhibition ([2]; 1.11 µM),normalised growth rate inhibition ([2]; 3.33 µM),normalised growth rate inhibition ([2]; 10 µM),normalised growth rate inhibition ([3]; 0.04 µM),normalised growth rate inhibition ([3]; 0.12 µM),normalised growth rate inhibition ([3]; 0.37 µM),normalised growth rate inhibition ([3]; 1.11 µM),normalised growth rate inhibition ([3]; 3.33 µM),normalised growth rate inhibition ([3]; 10 µM),normalised growth rate inhibition ([4]; 0.04 µM),normalised growth rate inhibition ([4]; 0.12 µM),normalised growth rate inhibition ([4]; 0.37 µM),normalised growth rate inhibition ([4]; 1.11 µM),normalised growth rate inhibition ([4]; 3.33 µM),normalised growth rate inhibition ([4]; 10 µM),normalised growth rate inhibition ([5]; 0.04 µM),normalised growth rate inhibition ([5]; 0.12 µM),normalised growth rate inhibition ([5]; 0.37 µM),normalised growth rate inhibition ([5]; 1.11 µM),normalised growth rate inhibition ([5]; 3.33 µM),normalised growth rate inhibition ([5]; 10 µM),normalised growth rate inhibition ([6]; 0.04 µM),normalised growth rate inhibition ([6]; 0.12 µM),normalised growth rate inhibition ([6]; 0.37 µM),normalised growth rate inhibition ([6]; 1.11 µM),normalised growth rate inhibition ([6]; 3.33 µM),normalised growth rate inhibition ([6]; 10 µM)
N#CCNC(=O)c1ccc(-c2ccnc(Nc3ccc(N4CCOCC4)cc3)n2)cc1 [CYT387],0.959 ± 0.023,0.924 ± 0.032,0.868 ± 0.038,0.799 ± 0.047,0.649 ± 0.1,0.185 ± 0.11,0.841 ± 0.15,0.8 ± 0.16,0.789 ± 0.12,0.687 ± 0.12,0.509 ± 0.11,0.0674 ± 0.037,0.926 ± 0.072,0.871 ± 0.038,0.837 ± 0.083,0.748 ± 0.046,0.576 ± 0.073,0.0633 ± 0.1,0.912 ± 0.024,0.896 ± 0.098,0.83 ± 0.092,0.628 ± 0.083,0.332 ± 0.2,0.0654 ± 0.039,0.931 ± 0.031,0.851 ± 0.022,0.762 ± 0.024,0.638 ± 0.043,0.447 ± 0.12,0.046 ± 0.14,0.859 ± 0.059,0.777 ± 0.053,0.678 ± 0.087,0.527 ± 0.18,0.36 ± 0.28,-0.112 ± 0.2
CS(=O)(=O)N1CCN(Cc2cc3nc(-c4cccc5[nH]ncc45)nc(N4CCOCC4)c3s2)CC1 [GDC-0941],0.869 ± 0.15,0.792 ± 0.18,0.625 ± 0.21,0.427 ± 0.14,0.289 ± 0.087,0.102 ± 0.038,0.384 ± 0.11,0.283 ± 0.088,0.131 ± 0.099,0.0555 ± 0.16,0.00405 ± 0.15,-0.0817 ± 0.19,0.717 ± 0.053,0.689 ± 0.067,0.502 ± 0.17,0.258 ± 0.19,0.0678 ± 0.098,-0.056 ± 0.052,0.331 ± 0.1,0.176 ± 0.079,0.0196 ± 0.047,-0.00416 ± 0.0071,-0.0358 ± 0.013,-0.081 ± 0.069,0.779 ± 0.032,0.675 ± 0.031,0.568 ± 0.088,0.466 ± 0.1,0.408 ± 0.096,0.263 ± 0.077,0.784 ± 0.092,0.797 ± 0.069,0.715 ± 0.011,0.676 ± 0.056,0.644 ± 0.053,0.372 ± 0.1
COc1cc(N2CCC(C(N)=O)CC2)ccc1Nc1nc(N)c(Cl)c(Nc2ccccc2S(=O)(=O)C(C)C)n1 [HG-5-88-01],0.933 ± 0.075,0.879 ± 0.09,0.766 ± 0.14,0.709 ± 0.16,0.627 ± 0.2,0.452 ± 0.11,0.548 ± 0.13,0.691 ± 0.1,0.678 ± 0.073,0.699 ± 0.08,0.641 ± 0.17,0.133 ± 0.15,0.747 ± 0.087,0.921 ± 0.066,0.937 ± 0.039,0.887 ± 0.022,0.846 ± 0.048,0.404 ± 0.013,0.635 ± 0.082,0.602 ± 0.04,0.493 ± 0.081,0.364 ± 0.071,0.208 ± 0.11,-0.0672 ± 0.054,0.942 ± 0.016,0.933 ± 0.04,0.885 ± 0.015,0.8637 ± 0.0081,0.839 ± 0.022,0.664 ± 0.034,0.794 ± 0.12,0.861 ± 0.12,0.791 ± 0.11,0.796 ± 0.14,0.783 ± 0.17,0.451 ± 0.089
CNC(=O)c1ccc(Nc2cc(Nc3ccccc3S(=O)(=O)C(C)C)c3cc[nH]c3n2)nc1 [HG-5-113-01],0.968 ± 0.013,0.92 ± 0.036,0.851 ± 0.034,0.713 ± 0.031,0.312 ± 0.16,-0.0419 ± 0.062,0.875 ± 0.062,0.798 ± 0.16,0.514 ± 0.3,0.0629 ± 0.15,-0.121 ± 0.069,-0.148 ± 0.12,0.953 ± 0.041,0.8835 ± 0.0077,0.785 ± 0.069,0.601 ± 0.057,0.295 ± 0.051,-0.158 ± 0.11,0.866 ± 0.069,0.718 ± 0.18,0.399 ± 0.21,0.163 ± 0.11,0.064 ± 0.018,-0.222 ± 0.1,0.9393 ± 0.0065,0.9 ± 0.013,0.77 ± 0.043,0.443 ± 0.17,0.109 ± 0.13,-0.0329 ± 0.066,0.969 ± 0.058,0.888 ± 0.068,0.705 ± 0.12,0.35 ± 0.19,0.123 ± 0.089,-0.0611 ± 0.15
